A value given as a limit tells only on which side of the number the result lay.

This assay has as its target T1, Abl T315I KD (unphosphorylated c-Abl T315I kinase domain) (Mus musculus, UniProt P00520, T315I).
T1 construct: purified and unphosphorylated T315I Abl kinase domain; made in house; host or cells: E. coli BL21(DE3)
T1 sequence (P00520 242-493 T315I limits assumed): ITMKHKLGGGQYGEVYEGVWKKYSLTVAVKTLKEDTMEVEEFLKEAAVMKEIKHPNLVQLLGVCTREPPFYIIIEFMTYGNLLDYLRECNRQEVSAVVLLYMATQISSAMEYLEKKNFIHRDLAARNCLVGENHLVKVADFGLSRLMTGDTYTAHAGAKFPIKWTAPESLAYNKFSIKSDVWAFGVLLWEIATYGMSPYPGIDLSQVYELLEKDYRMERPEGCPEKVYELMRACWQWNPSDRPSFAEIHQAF
The assay is described as follows: c-Abl T315I (unphosphorylated kinase domain) enzyme assay, PK/LDH coupled. The note with it: mutant Abl kinase domain at zero phosphorylation state; read-out: Abl_T215l—0P IC50. The class given is biochemical. An excerpt: Although the first of these examples uses the kinase domain of a mutant form of Abl T315I (“Abl T315I KD”), the kinase assays may use various forms of mutant and wild type enzymes, including, for example, the entire protein, the kinase domain, or a portion thereof (e.g. Abl Y393F). The kinases used in the assays may also be of varying phosphorylation states. In the c-Abl example, a mutant kinase at a zero phosphorylation state was used.
c-Abl Pyruvate Kinase/Lactate Dehydrogenase Coupled Enzyme Assay
In the c-Abl Pyruvate Kinase (PK)/Lactate Dehydrogenase (LDH) Coupled Assay the protein kinase dependant phosphorylation of a substrate peptide was coupled to the oxidation of NADH. The oxidation of NADH to NAD+ was detected by monitoring a decrease in absorbance at 340 nm.
Materials: Abl substrate peptide=EAIYAAPFAKKK SEQ ID NO:1)-OH (Biopeptide, San Diego, Calif.); βNADH (Sigma Cat#N-8129, FW=709.4); 2M MgCl2; 1M HEPES buffer, pH 7.5; Phosphoenolpyruvate (PEP) (Sigma Cat#P-7002, FW=234); Lactate dehydrogenase (LDH) (Worthington Biochemical Cat#2756); Pyruvate Kinase (PK) (Sigma Cat#P-9136); ATP (Sigma Cat#A-3377, FW=551); Greiner 384-well UV star plate; and purified and unphosphorylated T315I Abl kinase domain.
Stock Solutions: 10 mM NADH (7.09 mg/ml in miliQH2O) made fresh daily; 10 mM Abl substrate peptide (13.4 mg/ml in miliQH2O) stored at −20° C.; 100 mM HEPES buffer, pH 7.5 (5 ml IM stock+45 ml miliQH2O); 100 mM MgCl2 (5 ml 2M MgCl2+95 ml dH2O); 100 mM PEP (23.4 mg/ml in dH2O) stored at −20° C.; 10 mM ATP (5.51 mg/ml in dH2O) stored at −20° C. (diluted 50 μl into total of 10 ml miliQH2O daily=50 μM ATP working stock); 1000 U/ml PK (U/mg varies with lot) flash-frozen under liquid N2 and stored at −80° C.; and 1000 U/ml LDH (U/mg varies with lot) flash-frozen under liquid N2 and stored at −80° C.
Standard Assay Setup for 384-well format (50 μl reaction): 300 μM NADH; 10 mM MgCl2; 2 mM PEP; 45 U/ml PK; 60 U/ml LDH; 200 μM Abl substrate peptide; 2.5 μl test compound (in DMSO); 2 μg/ml Abl kinase domain; 10 μM ATP; 100 mM HEPES buffer. Positive controls contained DMSO with no test compound. Negative controls contained 5 μl of 0.5M EDTA (50 mM in the assay). The dephosphorylated form of the c-Abl T315I mutant was used in the biochemical screening assays. The kinase reaction was initiated at time t=0 by the addition of ATP.
Activity was measured by following the time-dependent loss of NADH by absorbance spectroscopy at 340 nm. The linear portion of the resulting progress curve was then analyzed by linear regression to get the activity in absorbance units/time, reported as the slope of that best fit line (moles/unit time can be calculated from using molar extinction coefficient for NADH at 340 nm, 6250M^−1cm^−1).
Data was evaluated using the equation: Z′=1-[3*(σ++σ−)/|μ+−μ−|] (Zhang, et al., 1999 J Biomol Screening 4(2) 67-73), where […] the mean and σ the standard deviation. The subscript designates positive or negative controls. The Z′ score for a robust screening assay should be 0.50. The typical threshold=μ+−3*σ+. Any value that falls below the threshold was designated a “hit”.
Dose response was analyzed using the equation: y=min+{(max−min)/(1+10^[compound]-logIC50)}, where y is the observed initial slope, max=the slope in the absence of inhibitor, min=the slope at infinite inhibitor, and the IC50 is the [compound] that corresponds to ½ the total observed amplitude (Amplitude=max−min).
To measure modulation, activation, or inhibition of Abl KD, a test compound was added to the assay at a range of concentrations. Inhibitors may inhibit Abl KD activity at an IC50 in the micromolar range, the nanomolar range, or, for example, in the subnanomolar range.

On to `O=C(c1cccc(-c2cnc3[nH]nc(-c4cccc5cccnc45)c3c2)c1)N1CCOCC1`, for which the IC50 is under 1 µM. The value for `COc1ccccc1-c1n[nH]c2ncc(-c3cccc(S(=O)(=O)NC4CC4)c3)cc12` was under 1 µM; that for `c1ccc(-c2n[nH]c3ncc(-c4cccnc4)cc23)cc1` was under 1 µM; that for `COc1ccccc1-c1n[nH]c2ncc(-c3ccc(C(=O)NC4CC4)cc3)cc12` was under 1 µM. For the compound `c1ccc(-c2n[nH]c3ncc(-c4ccc5[nH]ccc5c4)cc23)cc1`, the IC50 was under 1 µM. In the case of `COc1ccccc1-c1n[nH]c2ncc(-c3ccc(C(=O)N4CCCCC4)cc3)cc12`, the IC50 was under 1 µM. As for `COc1ccccc1-c1n[nH]c2ncc(-c3cccnc3)cc12`, the IC50 is under 1 µM.

As for `CCOc1ccccc1-c1n[nH]c2ncc(-c3cccc(C(=O)N4CCOCC4)c3)cc12`, the IC50 is under 1 µM.

For the compound `CCN1CCN(C(=O)c2cccc(-c3cnc4[nH]nc(-c5cc(F)ccc5OC)c4c3)c2)CC1`, the IC50 was under 1 µM. Consider `Cc1ccsc1-c1n[nH]c2ncc(-c3cccc(C(=O)N4CCOCC4)c3)cc12`, for which the IC50 is under 1 µM. `COc1ccccc1-c1n[nH]c2ncc(-c3ccc(C(=O)N4CCOCC4)cc3)cc12`: the IC50 was under 1 µM. Regarding `COc1cc(-c2cnc3[nH]nc(-c4ccccc4)c3c2)ccc1O`, the IC50 is under 1 µM. Consider `COc1ccccc1-c1n[nH]c2ncc(-c3cccc(C(=O)N(C)C)c3)cc12`, for which the IC50 was under 1 µM. Under `COc1cc(-c2cnc3[nH]cc(-c4ccc(C)cc4)c3n2)ccc1O` stands under 1 µM; under `COc1ccccc1-c1n[nH]c2ncc(-c3ccc(C(=O)N4CCCC4)cc3)cc12`, under 1 µM; under `Oc1cccc(-c2cnc3[nH]nc(-c4ccccc4)c3c2)c1`, under 1 µM. Take `Cc1cc(F)ccc1-c1n[nH]c2ncc(-c3cccc(C(=O)N4CCOCC4)c3)cc12`: the IC50 is under 1 µM.

As for `COc1ccccc1-c1n[nH]c2ncc(-c3cccc(C(=O)N4CCC(CO)CC4)c3)cc12`, the IC50 was under 1 µM.

Take `COc1ccccc1-c1cnc2[nH]nc(-c3ccccc3OC)c2c1`: the IC50 is under 1 µM. As for `COc1ccccc1-c1c[nH]c2ncc(-c3cccc(C(=O)N(C)C)c3)nc12`, the IC50 was under 1 µM. The value for `COc1c(F)cccc1-c1n[nH]c2ncc(-c3cccc(C(=O)N4CCOCC4)c3)cc12` was under 1 µM; that for `COc1ncc(-c2n[nH]c3ncc(-c4cccc(C(=O)N5CCOCC5)c4)cc23)c(OC)n1` was under 1 µM. On to `O=C(c1cccc(-c2cnc3[nH]nc(-c4ccncc4Cl)c3c2)c1)N1CCOCC1`, for which the 50% inhibitory concentration (IC50) was under 1 µM. As to `COc1ccccc1-c1n[nH]c2ncc(-c3ccc(C(=O)N4CCN(C)CC4)cc3)cc12`, the IC50 was under 1 µM. In the case of `COc1ccccc1-c1n[nH]c2ncc(-c3cccc(C(=O)NC(C)C)c3)cc12`, the IC50 was under 1 µM. Under `COc1ccccc1-c1n[nH]c2ncc(Br)cc12` stands under 1 µM; under `CCc1ccccc1-c1n[nH]c2ncc(-c3cccc(C(=O)N4CCOCC4)c3)cc12`, under 1 µM; under `COc1ccccc1-c1n[nH]c2ncc(-c3cnc4[nH]n(C)c(=O)c4c3)cc12`, under 1 µM. Under `COc1ccccc1-c1n[nH]c2ncc(-c3cccc(C(=O)N4CCN(C)CC4)c3)cc12` stands under 1 µM.

Consider `O=C(c1cccc(-c2cnc3[nH]nc(-c4ccc5cc[nH]c5c4)c3c2)c1)N1CCOCC1`, for which the IC50 is under 1 µM. Under `COc1ccccc1-c1n[nH]c2ncc(-c3cccc(C(=O)N4CCN(CCN(C)C)CC4)c3)cc12` stands under 1 µM; under `COc1ccccc1-c1n[nH]c2ncc(-c3cccc(C(=O)N4CCCC4)c3)cc12`, under 1 µM; under `COc1ccccc1-c1n[nH]c2ncc(-c3ccc(O)c(C(=O)N4CCOCC4)c3)cc12`, under 1 µM. Under `Cn1ccc2cc(-c3n[nH]c4ncc(-c5cccc(C(=O)N6CCOCC6)c5)cc34)ccc21` stands under 1 µM.

The record behind these values is patent publication US7626021B2, “Fused ring heterocycle kinase modulators” (SGX Pharmaceuticals, Inc., priority 2004, dated 2009).
